# Reference: publication PMC8750417, “Intracellular Amplifiers of Reactive Oxygen Species Affecting Mitochondria as Radiosensitizers” (Cancers, 2021)
# Tested on: SBLF9 fibroblasts
# Assay: Mitochondrial ROS imaging (MitoSOX), SBLF9 fibroblasts
# Type: cell-based
# Details: 5 µM
# Method: The cells were re-suspended in RPMI 1640 medium containing 5% FBS, 1% L-glutamine and 1% penicillin/streptomycin (100 µL). Finally, the fluorescence of live cells (λex = 488 nm, λem = 530 nm) in the suspensions was determined by using flow cytometry (Figure […]
# Figure S62. Fluorescence of DAF-FM diacetate-loaded A2780 cells treated either with 2c or the carrier. *: p<0.05, Student’s t test.
# Effect of prodrug 2c on mitochondrial reactive oxygen species in representative cancer (A2780) and normal cells (SBLF9 fibroblasts) (Figure 6)
# A2780 cells were seeded in of RPMI 1640 medium (500 µL) supplemented with 5% FBS, 1% L-glutamine, and 1% penicillin/streptomycin on a 35 mm imaging dish (µ- Dish 35 mm, high, ibidi GmbH, Germany) at a cell density of 80 cells/µL and allowed to attach to the surface of the dish for overnight. […]
# The fluorescence images were taken with a Zeiss Axio Vert.A1 fluorescence microscope […]
# 4x10^4 cells per well. […] Cell viability was assessed by quantification of ATP (CellTiter Glo®, Promega) 48 hours after drug application.
# Luminescence was measured on a Tecan Infinite F200 Microplate Reader. Viability was calculated as % of solvent (DMSO) treated control. […]
structure (smiles),measurement,value
CC1(C)OB(c2ccc(COC(=O)N(Cc3cn(Cc4ccc(Cn5cc(Cc6ccccc6)nn5)cc4)nn3)[c-]3cccc3)cc2)OC1(C)C.[Fe+2].c1cc[cH-]c1 [2c],mROS level in normal cells,only a slight increase of mROS level
